Data reported in US20260217701A1, “SELECTIVE BET INHIBITORS AND USES THEREOF” (Tay Therapeutics Limited, priority 2022, published 2026).
Like-named read-outs stand apart in the source and are kept apart here.

Assay: Rat PK study #1 (Compound A PO, methylcellulose vs propylene glycol formulation)
Assay type: in vivo, Lewis rats
Details: male, rat, plasma, Lewis rats, PO 10 mg/kg; for concentration at 0.25 h / concentration at 0.5 h / concentration at 1 h / concentration at 2 h / concentration at 4 h / concentration at 8 h / concentration at 24 h / AUC(0-t) / Tmax / Cmax / concentration at 0.083 h: Lewis, po, 10 mg/kg; for Cmax: read-out: Cmax
Description: For the first rat pharmacokinetic study, the pharmacokinetics of Compound A were assessed in male Lewis rats. Compound A was prepared in two different formulations (1% methylcellulose and 20% propylene glycol/20% Vitamin E/60% water) according to Table 3A (see Tables 2A and 2D for formulations). The formulations were made fresh prior to use. Animals were divided into two groups based on the compound formulation (n=3/group). The Compound A solutions were administered to animals orally (PO) and animals were then monitored over a 24 h period.
Blood samples (~0.2 mL) were collected according to a schedule (0.083, 0.25, 0.5, 1, 2, 4, 8, and 24 h following the initial dosing) via the jugular vein by cannulation and EDTA-K2 was used as anticoagulant. Within 30 minutes of collection, the samples were centrifuged at approximately 4000 times g-force for 5 minutes at 4° C. to obtain blood plasma. The plasma samples were immediately divided into two aliquots (~75 μL each), transferred to a cryogenic vial, and stored in a freezer at −75±15° C. prior to analysis.
The concentration of Compound A in plasma samples was determined by liquid chromatography-mass spectrometry (LC-MS/MS) using a Shimadzu HPLC (DGU-20A5R; LC-30AD; SIL-30AC; Rack changer II; CTO-31A; and CBM-20A) and an AB API 5500 LC/MS/MS instrument. Samples were analyzed on an Agilent Poroshell 120 EC-C18 4 μm (50×2.1 mm) column. Solution A in the mobile phase was 95% water (0.1% formic acid) and solution B was 95% acetonitrile in water (0.1% formic acid), injection volume was 3 μL, and flow rate was 0.6 mL/min.
To prepare samples for analysis, serial concentrations were prepared by diluting the stock solution of analyte with a 50% acetonitrile in water solution. 5 μL working solutions (5, 10, 20, 50, 100, 500, 1000, 5000, and 10000 ng/ml) were added to 50 μL of the blank Lewis rat plasma to achieve calibration standards of ~0.5 to 1000 ng/ml (0.5, 1, 2, 5, 10, 50, 100, 500, and 1000 ng/ml) in a total volume of 55 μL. Five quality control samples at 1 ng/ml, 2 ng/ml, 5 ng/mL, 50 ng/mL, and 800 ng/mL for plasma were prepared independently of those used for the calibration curves. These QC samples were prepared on the day of analysis in the same way as calibration standards.
55 μL of standards, 55 μL of QC samples and 55 μL of unknown samples (50 μL of unknown rat plasma with 5 μL of blank solution) were added to 200 μL of acetonitrile containing internal standard (IS; verapamil) mixture for precipitating protein respectively. The samples were then vortexed for 30 s. After centrifugation at 4° C., 3900 rpm for 15 min, the supernatant was diluted 3 times with water. 3 μL of diluted supernatant was injected into the LC/MS/MS system for quantitative analysis.

[1] = 1% methylcellulose formulation, mean of 3 animals
[2] = 1% methylcellulose formulation, individual animals
[3] = propylene glycol/Vitamin E TPGS/water formulation, individual animals
[4] = propylene glycol/Vitamin E TPGS/water formulation, mean of 3 animals

Cn1cc(-c2ccccc2)c(-c2cn(C)c(=O)c3[nH]c(-c4cnn(C(F)(F)F)c4)cc23)cc1=O [Compound A, 6-methyl-4-(1-methyl-2-oxo-5-phenyl-1,2-dihydropyridin-4-yl)-2-(1-(trifluoromethyl)-1H-pyrazol-4-yl)-1,6-dihydro-7H-pyrrolo[2,3-c]pyridin-7-one]
concentration at 0.25 h [1]: 0.00095 µg/mL
concentration at 0.5 h [1]: 0.00537 µg/mL
concentration at 1 h [2]: 0.0171 µg/mL
concentration at 1 h [1]: 0.0133 µg/mL
concentration at 2 h [2]: 0.0255 µg/mL
concentration at 2 h [1]: 0.0233 µg/mL
concentration at 4 h [2]: 0.0415 µg/mL
concentration at 4 h [1]: 0.0446 µg/mL
concentration at 8 h [1]: 0.0491 µg/mL
concentration at 24 h [1]: 0.00277 µg/mL
AUC(0-t) [2]: 0.48 µg·h/mL
Tmax [2]: 4 h
Cmax [2]: 0.0415 µg/mL
AUC(0-t) [1]: 0.694 µg·h/mL
Tmax [1]: 6.67 h
Cmax [1]: 0.0531 µg/mL
concentration at 0.083 h [3]: 0.00479 µg/mL
concentration at 0.083 h [4]: 0.00429 µg/mL
concentration at 0.25 h [3]: 0.0445 µg/mL
concentration at 0.25 h [4]: 0.0438 µg/mL
concentration at 0.5 h [3]: 0.125 µg/mL
concentration at 0.5 h [4]: 0.131 µg/mL
concentration at 1 h [3]: 0.277 µg/mL
concentration at 1 h [4]: 0.268 µg/mL
concentration at 2 h [3]: 0.39 µg/mL
concentration at 2 h [4]: 0.396 µg/mL
concentration at 4 h [3]: 0.445 µg/mL
concentration at 4 h [4]: 0.399 µg/mL
concentration at 8 h [3]: 0.266 µg/mL
concentration at 8 h [4]: 0.189 µg/mL
concentration at 24 h [3]: 0.0131 µg/mL
concentration at 24 h [4]: 0.0127 µg/mL
AUC(0-t) [3]: 4.95 µg·h/mL
Tmax [3]: 4 h
Cmax [3]: 0.445 µg/mL
AUC(0-t) [4]: 4.04 µg·h/mL
Tmax [4]: 3.33 h
Cmax [4]: 0.419 µg/mL
AUC(0-inf) [3]: 3.51 µg·h/mL
half-life [3]: 4.33 h
MRT inf (propylene glycol/Vitamin E TPGS/water formulation, individual animals, read-out: MRTInf_obs): 6.39 h
